Measurements reported in US20110263507A1 (priority 2007, published 2011).
Where two headings read alike, the source gives them in different places. Where a SMILES comes first, the peptide text is derived from it. Where no end group is shown, it is not given here. [ ]: non-standard residue; d: D form. Ala(indol-4-yl) = N[C@@H](Cc1cccc2[nH]ccc12)C(=O)O; NMeR = CN[C@@H](CCCNC(=N)N)C(=O)O; pGlu = O=C1CC[C@@H](C(=O)O)N1; Tle = CC(C)(C)[C@H](N)C(=O)O; dOrn = NCCC[C@@H](N)C(=O)O; Orn = NCCC[C@H](N)C(=O)O; Dab = NCC[C@H](N)C(=O)O

Tests used:
hNTS1 = target: T1, hNTS1 (Homo sapiens, UniProt P30989); test: Radioligand competition binding with [3H]NT, membranes of CHO-K1 cells expressing hNTS1; details: for hNTS1 Selectivity: Table 2, hNTS1 over hNTS2
T1 construct: expressed in transfected cells; host or cells: CHO-K1
T1 sequence (P30989 whole entry): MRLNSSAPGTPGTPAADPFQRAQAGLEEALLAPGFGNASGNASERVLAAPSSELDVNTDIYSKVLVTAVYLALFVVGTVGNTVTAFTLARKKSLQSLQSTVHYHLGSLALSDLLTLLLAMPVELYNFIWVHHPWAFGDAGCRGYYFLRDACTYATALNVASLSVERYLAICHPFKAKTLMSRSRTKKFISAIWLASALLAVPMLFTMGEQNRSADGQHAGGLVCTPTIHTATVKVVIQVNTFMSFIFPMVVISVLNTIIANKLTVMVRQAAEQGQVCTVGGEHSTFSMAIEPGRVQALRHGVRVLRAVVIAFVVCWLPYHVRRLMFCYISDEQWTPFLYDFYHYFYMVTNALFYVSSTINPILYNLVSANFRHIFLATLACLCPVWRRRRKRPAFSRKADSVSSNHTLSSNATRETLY
Experimental: CHO-K1 cells that had been stably transfected separately with the hNTS1 or hNTS2 genes were cultured in 150 mm (500 cm^2) Petri plates with 35 ml of Dulbecco's modified Eagle's medium containing 100 μM minimal essential medium nonessential amino acids (Life Technologies, Inc.) supplemented with 5% (v/v) FetalClone II bovine serum product (Hyclone Labs, Logan, Utah). […] The cellular pellet (in Tris-HCl buffer) was stored at […] until the radioligand binding was performed.
For use in binding assays, crude membrane preparations were prepared by centrifugation of the cellular pellet at 35,600×g for 10 min. The supernatant was decanted and discarded, and the cellular pellet was resuspended in 1 ml of Tris-HCl buffer followed by homogenization with a Brinkmann Polytron at setting 5.5 for 15 s. Centrifugation was repeated as above, the supernatant was decanted and discarded, and the cellular pellet was resuspended in 1 ml of Tris-HCl buffer followed by homogenization. Centrifugation was repeated a third time, the supernatant was discarded, and the final cellular pellet was suspended in 0.5-2.5 ml of Tris-HCl buffer. Protein concentration of the membrane preparation was estimated by the method of Lowry et al. using bovine serum albumin as a standard.
Incubation was at 20° C. for 40 min. The assay was routinely terminated by addition of ice-cold 0.9% NaCl (5×1.5 ml), followed by rapid filtration through a GF/B filter strip that had been pretreated with 0.2% or 2% polyethyleneimine. Details of binding assays have been described previously. […] Data were analyzed using the LIGAND program.

hNTS2 = target: T2, hNTS2 (Homo sapiens, UniProt O95665); test: Radioligand competition binding with [3H]NT, membranes of CHO-K1 cells expressing hNTS2
T2 construct: expressed in transfected cells; host or cells: CHO-K1
T2 sequence (O95665 whole entry): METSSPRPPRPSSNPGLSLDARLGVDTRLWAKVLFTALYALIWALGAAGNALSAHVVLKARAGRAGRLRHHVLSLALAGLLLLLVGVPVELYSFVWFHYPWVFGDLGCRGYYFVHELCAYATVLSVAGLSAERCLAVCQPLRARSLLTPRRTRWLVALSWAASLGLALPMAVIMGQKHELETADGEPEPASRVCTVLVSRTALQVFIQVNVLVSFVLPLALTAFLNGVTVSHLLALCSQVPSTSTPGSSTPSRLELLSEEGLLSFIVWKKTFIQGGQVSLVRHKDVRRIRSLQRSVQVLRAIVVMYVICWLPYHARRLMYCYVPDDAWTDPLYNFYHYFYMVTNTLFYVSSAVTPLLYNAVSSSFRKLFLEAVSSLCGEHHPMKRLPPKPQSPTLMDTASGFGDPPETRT
Experimental: CHO-K1 cells that had been stably transfected separately with the hNTS1 or hNTS2 genes were cultured in 150 mm (500 cm^2) Petri plates with 35 ml of Dulbecco's modified Eagle's medium containing 100 μM minimal essential medium nonessential amino acids (Life Technologies, Inc.) supplemented with 5% (v/v) FetalClone II bovine serum product (Hyclone Labs, Logan, Utah). CHO cells (subculture 7-15) were harvested at confluence by aspiration of the medium, followed by a wash with ice-cold 50 mM Tris-HCl buffer, pH=7.4, which was discarded, resuspension in 5-15 ml of Tris-HCl, scraping the cells with a plastic spatula into a centrifuge tube, and collection of cells by centrifugation at 300×g for 5 min at 4° C., in a GPR centrifuge (Beckman Instruments, Fullerton, Calif.). The cellular pellet (in Tris-HCl buffer) was stored at −180° C. until the radioligand binding was performed.
Incubation was at 20° C. for 40 min. The assay was routinely terminated by addition of ice-cold 0.9% NaCl (5×1.5 ml), followed by rapid filtration through a GF/B filter strip that had been pretreated with 0.2% or 2% polyethyleneimine. […] Data were analyzed using the LIGAND program.
Curves were generated using the LIGAND program. […] Data are the means of duplicate determinations and are representative results from one of at least three independent experiments.

[1] = Degradation of peptides in plasma in vitro (stability to plasma peptidases); type: in vitro ADME; details: peptide incubated with human (FIG. 4) or rat plasma; for half-life: read-out: half-lives in plasma
Experimental: All peptides that were stable (half-lives >100 h), such as NT66, NT67, NT69, NT72, and NT73, have either a blocked amino group (N-Methyl-Arg) or a D-amino in the 8 or 9 position (Table 4).

[2] = Body temperature lowering in mice; type: in vivo; details: intraperitoneal, 10 times the dosage of that for NT69, FIG. 5
Description: At time “0” baseline readings were made. […] The thermistor probe was inserted 2 cm into the rectum for the measurement of body temperature.

[3] = Direct injection into the brains of rats; type: in vivo; details: direct injection into brain, unpublished observations
Description: (See Cusack, B. et al. BRAIN RES 856: 48-54 (2000) and Tyler-McMahon, B. M. et al. EUR J PHARMACOL 390: 107-11 (2000)).

[4] = read-out: hNTS1 Geometric Mean ∀ SEM (equilibrium dissociation constant Kd)
[5] = Table 2, read-out: hNTS2 Geometric Mean ∀ SEM (equilibrium dissociation constant Kd)

Compound	hNTS1 Selectivity (hNTS1)	Kd (hNTS1; [4])	hNTS2 Selectivity (hNTS2; Table 2, hNTS2 over hNTS1)	Kd (hNTS2; [5])	hNTS2 Selectivity (hNTS2; Table 4)	also measured
CC(C)C[C@H](NC(=O)[C@@H](NC(=O)[C@H](Cc1cccc2[nH]ccc12)NC(=O)[C@@H]1CCCN1C(=O)[C@H](CCCNC(=N)N)NC(=O)[C@@H](N)CCCNC(=N)N)C(C)(C)C)C(=O)O [NT65, [neo-Trp^11,tert-Leu^12]NT(8-13)] (H-RRP[Ala(indol-4-yl)][Tle]L-OH; N-terminus and C-terminus assumed)	0.5	1.01 ± 0.05 nM	1.9	0.52 ± 0.03 nM	1.7	degradation in plasma [1]: rapidly degraded
CC[C@H](C)[C@H](NC(=O)[C@H](Cc1cccc2[nH]ccc12)NC(=O)[C@@H]1CCCN1C(=O)[C@H](CCCNC(=N)N)NC(=O)[C@@H](N)CCCNC(=N)N)C(=O)N[C@@H](CC(C)C)C(=O)O [NT64L, [L-neo-Trp^11]NT(8-13)]						degradation in plasma [1]: rapidly degraded
CC[C@H](C)[C@H](NC(=O)[C@H](Cc1cccc2[nH]ccc12)NC(=O)[C@@H]1CCCN1C(=O)[C@H](N)CCCCN)C(=O)N[C@@H](CC(C)C)C(=O)O [NT73, [D-Lys^9,L-neo-Trp^11]NT(9-13)] (H-[dK]P[Ala(indol-4-yl)]IL-OH; N-terminus and C-terminus assumed)	5.5	30 ± 3 nM	0.2	162 ± 3 nM		half-life [1]: > 100 h
CC[C@H](C)[C@H](NC(=O)[C@H](Cc1cccc2[nH]ccc12)NC(=O)[C@@H]1CCCN1C(=O)[C@H](CCCNC(=N)N)NC(=O)[C@H](N)CCCCN)C(=O)N[C@@H](CC(C)C)C(=O)O [NT67L, [D-Lys^8,L-neo-Trp^11]NT(8-13)] (H-[dK]RP[Ala(indol-4-yl)]IL-OH; N-terminus and C-terminus assumed)	2.1	0.59 ± 0.05 nM	0.5	1.23 ± 0.03 nM	— (“—“ indicates higher affinity for hNTS1)	half-life [1]: > 100 h
CC[C@H](C)[C@H](NC(=O)[C@@H](Cc1cccc2ccccc12)NC(=O)[C@@H]1CCCN1C(=O)[C@H](CCCNC(=N)N)NC(=O)[C@H](CCCNC(=N)N)NC)C(=O)N[C@@H](CC(C)C)C(=O)O [NT80, [N-methyl-Arg^8,D-3,1-Nal^11]NT(8-13)]				30 nM		Kd (hNTS2; text, read-out: Kd at hNTS2): ~30 nM; effect on body temperature [2]: minimal effects
CC[C@H](C)[C@H](NC(=O)[C@@H](Cc1cccc2ccccc12)NC(=O)[C@@H]1CCCN1C(=O)[C@H](CCCNC(=N)N)NC(=O)[C@@H](N)CCCNC(=N)N)C(=O)N[C@@H](CC(C)C)C(=O)O [NT50, [D-3,1-Nal^11]NT(8-13)]						Kd (hNTS2; text, read-out: Kd at hNTS2): 17.3 nM; behavioral effect [3]: caused behavioral activation; effects on body temperature [3]: little or no effects on body temperature
CC(C)C[C@H](NC(=O)[C@@H](NC(=O)[C@H](Cc1cccc2[nH]ccc12)NC(=O)[C@@H]1CCCN1C(=O)[C@H](N)CCCCN)C(C)(C)C)C(=O)O [NT72, [D-Lys^9,L-neo-Trp^11,tert-Leu^12]NT(9-13)] (H-[dK]P[Ala(indol-4-yl)][Tle]L-OH; N-terminus and C-terminus assumed)	41.0		0.02		— (“—“ indicates higher affinity for hNTS1)	Kd (hNTS1; text, read-out: Kd at hNTS1): 34 nM; Kd (hNTS2; text, read-out: Kd at hNTS2): 1400 nM; half-life [1]: > 100 h
CC(C)C[C@H](NC(=O)[C@@H](NC(=O)[C@H](Cc1cccc2[nH]ccc12)NC(=O)[C@@H]1CCCN1C(=O)[C@H](CCCNC(=N)N)NC(=O)[C@H](N)CCCCN)C(C)(C)C)C(=O)O [NT66L, [D-Lys^8,L-neo-Trp^11,tert-Leu^12]NT(8-13)] (H-[dK]RP[Ala(indol-4-yl)][Tle]L-OH; N-terminus and C-terminus assumed)	0.7	10.2 ± 0.6 nM	1.4	7.1 ± 0.8 nM	2	half-life [1]: > 100 h
CC[C@H](C)[C@H](NC(=O)[C@H](Cc1ccc(O)cc1)NC(=O)[C@@H]1CCCN1C(=O)[C@H](CCCN)NC(=O)[C@H](CCCNC(=N)N)NC(=O)[C@@H]1CCCN1C(=O)[C@H](CCCCN)NC(=O)[C@H](CC(N)=O)NC(=O)[C@H](CCC(=O)O)NC(=O)[C@H](Cc1ccc(O)cc1)NC(=O)[C@H](CC(C)C)NC(=O)[C@@H]1CCC(=O)N1)C(=O)N[C@@H](CC(C)C)C(=O)O [NT60, [L-Orn^9]NT(1-13)] ([pGlu]LYENKPR[Orn]PYIL-OH; C-terminus assumed)	5.4	3.2 ± 0.1 nM	0.2	17 ± 2 nM		
RRPYLL [NT09, [L-Leu^12]NT(8-13)]	0.3		2.9			Kd (hNTS1): 7.2 ± 0.6 nM; Kd (hNTS2): 2.4 ± 0.3 nM
CC(C)C[C@H](NC(=O)[C@@H](NC(=O)[C@H](Cc1cccc2[nH]ccc12)NC(=O)[C@@H]1CCCN1C(=O)[C@@H](CCCN)NC(=O)[C@@H](N)CCCNC(=N)N)C(C)(C)C)C(=O)O [NT77, [D-Orn^9,L-neo-Trp^11,tert-Leu^12]NT(8-13)] (H-R[dOrn]P[Ala(indol-4-yl)][Tle]L-OH; N-terminus and C-terminus assumed)	0.3	1500 ± 100 nM	3.3	460 ± 70 nM	3.3	
CC[C@H](C)[C@H](NC(=O)[C@H](Cc1c[nH]c2ccccc12)NC(=O)[C@@H]1CCCN1C(=O)[C@H](CCCNC(=N)N)NC(=O)[C@H](N)CCCCN)C(=O)N[C@@H](CC(C)C)C(=O)O [NT67T, [D-Lys^8,L-Trp^11]NT(8-13)] (H-[dK]RPWIL-OH; N-terminus and C-terminus assumed)	0.5	17 ± 2 nM	2.2	8 ± 0.4 nM		
KRPYIL [NT17, [L-Lys^8]NT(8-13)]	4.0	0.25 ± 0.02 nM	0.2	1.2 ± 0.2 nM		
RRPAIL [NT08, [Ala^11]NT(8-13)]	0.02		43		43	NTS2 Selectivity (hNTS2; Table 3): 43
CC[C@H](C)[C@H](NC(=O)[C@H](Cc1ccc(O)cc1)NC(=O)[C@@H]1CCCN1C(=O)[C@@H](CCCNC(=N)N)NC(=O)[C@@H](N)CCCCN)C(=O)N[C@@H](CC(C)C)C(=O)O [NT16, [L-Lys^8,D-Arg^9]NT(8-13)] (H-K[dR]PYIL-OH; N-terminus and C-terminus assumed)	1.2	33 ± 6 nM	0.8	39.6 ± 0.6 nM		
CC[C@H](C)[C@H](NC(=O)[C@H](Cc1ccc(O)cc1)NC(=O)[C@@H]1CCCN1C(=O)[C@@H](CCCN)NC(=O)[C@@H](N)CCCNC(=N)N)C(=O)N[C@@H](CC(C)C)C(=O)O [NT24, [D-Orn^9]NT(8-13)] (H-R[dOrn]PYIL-OH; N-terminus and C-terminus assumed)	6.6	120 ± 10 nM	0.2	790 ± 20 nM		
CN[C@@H](CCCNC(=N)N)C(=O)N[C@@H](CCN)C(=O)N1CCC[C@H]1C(=O)N[C@@H](Cc1cccc2[nH]ccc12)C(=O)N[C@H](C(=O)N[C@@H](CC(C)C)C(=O)O)C(C)(C)C [NT71, [N-methyl-Arg^8,DAB^9,L-neo-Trp^11,tert-leu^12]NT(8-13)] (H-[NMeR][Dab]P[Ala(indol-4-yl)][Tle]L-OH; N-terminus and C-terminus assumed)	0.7	1.71 ± 0.06 nM	1.5	1.11 ± 0.03 nM		
